This is an account of results in US11957671B2, “Benzodioxane modulators of leukotriene A4 hydrolase (LTA4H) for prevention and treatment of aging-associated diseases” (Alkahest, Inc., priority 2021, dated 2024).

For assay [1], the system named is synthesis of LTB4 in human whole blood. Briefly: human whole blood (HWB) assay, LTB4 production inhibition. Format: cell-based. Conditions: calcimycin 20 μM. The method, then:
The compounds of the invention are additionally tested in a human whole blood (HWB) assay to determine their ability to inhibit the synthesis of LTB4 in a cellular system. Compounds are combined with heparinized human whole blood and incubated for 15 minutes at 37° C. Calcimycin (20 μM final, prepared in phosphate-buffered saline, pH 7.4) is then added and the mixture is incubated for another 30 minutes at 37° C. The samples are centrifuged for 5 min at low speed (1500×g) and the plasma layer is removed. Plasma LTB4 concentrations are then measured using an antibody-based homogenous time-resolved fluorescence method (CisBio, Bedford, Mass.). In general, the preferred potency range (IC50) of compounds in the HWB assay is between 10 nM to 10 μM, the more preferred potency range is 10 nM to 1 μM, and the most preferred potency range is 10 nM to 100 nM.

For the next assay, the target named is human LTA4 hydrolase (Homo sapiens (Human), UniProt P09960). Briefly: LTA4H Enzyme assay (cleavage of Arg-AMC). Format: biochemical. Conditions: LTA4H 1 nM, Arg-AMC 50 μM, room temperature 1 h. The method, then:
The compounds of the invention are assessed for the ability to interact with human LTA4 hydrolase in an enzymatic assay that measures the ability of the enzyme to cleave the peptide bond of arginyl-aminomethylcoumarin (Arg-AMC). LTA4H Enzyme (1 nM final), Arg-AMC substrate (50 μM final), and compound are combined in a reaction buffer (50 mM Tris-HCl (pH 7.5), 100 mM KCl, 0.5% bovine serum albumin) at room temperature for 1 h. The formation of product is assessed by measuring the fluorescence of aminomethylcoumarin product (excitation wavelength 380 nm/emission wavelength 460 nm).

In assay [2] the test system is purified endothelial cells from the brains of aged C57BL/6 mice. As to the kind of experiment: Microbulk qPCR of endothelial genes. Type of assay: in vivo, mouse. Conditions: 1 month bid P.O., 1 mg/kg Compound 1 or 2.5 mg/kg SC57461A. The method, then:
Downregulation of the detrimental genes Bsg, Gbp4, and CXCL12 in purified endothelial cells from the brains of mice treated with LTA4H inhibitors Compound 1 or SC57461A were compared to those of vehicle treated mice. Gene expression was measured by qPCR from 500 sorted endothelial cells and was normalized to GAPDH control.
Aged C57BL/6 mice (21 months of age) were treated for 1 month bid P.O. with vehicle, 1 mg/kg Compound 1, or 2.5 mg/kg SC57461A (n=3 mice per treatment group). One cortical cap (cortex and hippocampus) from each mouse was isolated and cells were dissociated using Miltenyi Neutral Dissociation Kit (#130-092-628). Cells were sorted using Sony Multi-Application Cell Sorter MA900 into clean, RNAase free 200 uL PCR strip tube with 5 uL RNAlater at a concentration of 500 cells per tube. RNA was isolated follow kit protocol for Qiagen RNeasy Micro Kit (#74004). cDNA was synthesized using SuperScript III Kit Protocol and qPCR assays were run using TaqMan or SYBR green primers.
Downregulation of the beneficial gene, Plat, in purified endothelial cells from the brains of mice treated with LTA4H inhibitors Compound 1 or SC57461A were compared to those of vehicle treated mice. Gene expression was measured by qPCR from 500 sorted endothelial cells and was normalized to GAPDH control.
(Quantitative PCR measures a nucleic acid by following its amplification.)

Assay [3] relates to hippocampal neurons of aged C57BL/6 mice. Briefly: Single cell RNA sequencing of NeuN+ hippocampal nuclei (CA1, DG). Format: in vivo, mouse. The method, then: Aged C57BL/6 mice (21 months of age) were treated for 1 month bid po with vehicle, 1 mg/kg Compound 1, or 2.5 mg/kg SC57461A (n=3 mice per treatment group). NucSeq For Mouse Brain Tissue protocol from 10× Genomics was used to isolate mouse hippocampus nuclei. Approximately 65 mg of brain tissue were used per treatment. Nonidet P40 was used to lyse cell walls and isolated nuclei were stained with Draq5 and NeuN antibodies for FACS sorting. Approximately 5,000 nuclei were collected for each sample. Eight samples were collected for each treatment for a total of 40,000 nuclei per treatment. These samples were prepped for sequencing using the 10× Genomics Chromium Next GEM kit.
GO terms are generated using the g:Profiler Web server (https://bitt.cs.ut.ee/gprofiler) to analyze differential regulated gene lists. Reported are the top 20 gene ontology (GO terms) terms from the biological process category, sorted by significance as determined by P-value. This list was filtered to report significant GO terms that include less than 1000 genes.

The test system of the next assay is aged mice. As to the kind of experiment: CA1 synapse density by histology. Conditions: preliminary data, pre- and post-synaptic protein staining. Type of assay: in vivo, mouse.
The next assay has as its system mice. Conditions: previous studies; cited from earlier work.
Assay [4] deals with aged C57BL/6 mice. As to the kind of experiment: Unbiased single cell RNA sequencing of brain tissue. Format: in vivo, mouse. Conditions: 2.5 mg/kg bid P.O. 1 month. The method, then: Aged C57BL/6 mice (21 months of age) were treated for 1 month bid P.O. with vehicle or 2.5 mg/kg SC57461A (n=3 mice per treatment group). One cortical cap (cortex and hippocampus) from each mouse was isolated and cells were dissociated and sorted using Sony Multi-Application Cell Sorter MA900. Unbiased RNA sequencing from single brain cells were analyzed according to techniques described previously (Yousf H, et al., Bio Protoc., 8(22):e3091 (2018), which is herein incorporated by reference in its entirety).

Assay [5] has as its system brain endothelial cells of aged C57BL/6 mice. As to the kind of experiment: Single cell RNA sequencing of brain endothelial cells (BECs). Format: in vivo, mouse. The method, then:
Male C57BL/6 mice aged 20-21 months were treated with Vehicle or SC-57461A commercially available LTA4H inhibitor. The mice were dosed with SC-57461A at 2.5 mg/kg PO bid for one month. Mice were anesthetized and blood and tissues were collected for further analysis. Blood was collected via cardiac puncture in syringes pre-filled with Heparin. Brains were collected following ACSF perfusion and processed for single cell RNA sequencing of labeled endothelial cells.
Brain endothelial cells (BECs) were sorted, sequenced, and analyzed based on techniques known to those having ordinary skill in the art. […] Gates were determined to separate CD31-positive, CD11b-negative endothelial cells from CD11b-positive, CD31-negative microglia. […]
Aged C57BL/6 mice (21 months of age) were treated for 1 month bid P.O. with vehicle, 1 mg/kg Compound 1, or 2.5 mg/kg SC57461A (n=3 mice per treatment group). Brain endothelial cells were sorted, sequenced and analyzed as described in Example 12 (See Chen M B, et al., Cell Rep, 30(13):4418-32e4 (2020) which is herein incorporated by reference in its entirety).
GO terms are generated using the g:Profiler Web server (https://bitt.cs.ut.ee/gprofiler) to analyze differential regulated gene lists. Reported are the top 20 gene ontology (GO terms) terms from the biological process category, sorted by significance as determined by P-value. […]

Assay [6] concerns aged C57BL/6 mice. Briefly: Long term potentiation (LTP) in hippocampal slices. Type of assay: in vivo, mouse. Conditions: 1 month bid po, 1 mg/kg Compound 1 or 2.5 mg/kg SC57461A. The method, then:
Aged C57BL/6 mice (21 months of age) were treated for 1 month bid po with vehicle, 1 mg/kg Compound 1, or 2.5 mg/kg SC57461A (n=5 mice per treatment group). Electrophysical recordings were performed at AfaSci, Inc, as follows. Animals were deeply anesthetized with halothane and decapitated. The brain was quickly taken out and placed into ice-cold artificial cerebrospinal fluid (ACSF) that was continuously bubbled with 5% CO2/95% O2. The ACSF was composed of (in mM) NaCl 130.0, KCl 2.5, KH2PO4 1.2, CaCl2 2.4, MgSO4 1.3, NaHCO326.0 and glucose 10.0 (pH 7.4). Hippocampal slices (400 μm thick) were prepared using a tissue slicer (Stoelting Co., IL) and incubated at room temperature in continuously oxygenated ACSF for at least 1 h before being recorded with submerged mode in chamber (Harvard Apparatus) at room temperature. Data were collected with an Axopatch-2B amplifier and pClamp 10.4 program (Axon Instruments) through digidata 1320A.
Field population spike (PS) was recorded using glass microelectrode filled with ACSF (resistance: 1-3 MO). Biphasic current pulses (0.2 ms duration for one phase, 0.4 ms in total) were delivered in 10 s intervals through a concentric bipolar stimulating electrode (FHC, Inc.). […] To record field population spikes in dorsal dentate gyrus, the stimulating electrode was placed on the hippocampal fissure to stimulate the bypassing perforant pathway fibers and the recording electrode was placed on inner part of granular cell layer. To record field EPSPs in DG, the stimulating electrode was placed on the hippocampal fissure to stimulate the bypassing perforant pathway fibers and the recording electrode was placed on inner part of granular cell layer. Slices were recorded within 8 hours after dissection. Titanic stimulation consisted of 2 trains of 100 pulses (0.4 ms bipolar pulse duration, 100 Hz) lasting for 1 second with 5 seconds of interval. The slope of EPSP and amplitude of population spike were measured from the initial phase of negative wave with Clampfit10.4. Each data point was measured with average of 3 consecutive traces. LTP was plotted as the percentage to baseline following high frequency stimulation (mean±SEM).

[7] abbreviates: 1 month bid po, 1 mg/kg Compound 1 or 2.5 mg/kg SC57461A.

Chain of human LTA4 hydrolase (P09960 whole entry): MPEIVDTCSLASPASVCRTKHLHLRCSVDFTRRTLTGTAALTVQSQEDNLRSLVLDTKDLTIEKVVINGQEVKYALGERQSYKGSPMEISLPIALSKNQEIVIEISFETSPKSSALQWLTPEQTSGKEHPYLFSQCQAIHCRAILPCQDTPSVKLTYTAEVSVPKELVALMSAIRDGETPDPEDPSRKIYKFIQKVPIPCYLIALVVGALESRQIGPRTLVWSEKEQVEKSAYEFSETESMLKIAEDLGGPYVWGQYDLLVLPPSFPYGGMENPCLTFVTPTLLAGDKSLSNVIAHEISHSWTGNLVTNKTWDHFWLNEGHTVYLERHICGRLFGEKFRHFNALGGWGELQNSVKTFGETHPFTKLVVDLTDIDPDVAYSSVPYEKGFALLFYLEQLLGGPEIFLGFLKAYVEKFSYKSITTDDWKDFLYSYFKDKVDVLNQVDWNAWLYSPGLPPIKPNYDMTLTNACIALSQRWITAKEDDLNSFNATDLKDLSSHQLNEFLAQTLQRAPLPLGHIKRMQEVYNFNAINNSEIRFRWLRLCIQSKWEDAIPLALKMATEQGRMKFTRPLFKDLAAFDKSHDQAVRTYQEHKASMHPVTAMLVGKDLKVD

Turning to `CC(=O)N1CCC(N(C)Cc2ccc([C@H]3COc4ccccc4O3)cc2)CC1` [Example 14], the IC50 in assay [1] is 155 nM; against human LTA4 hydrolase it was 2.32 nM.

The compound `c1cnc2c(c1)OCC(c1ccc(CN3CCCC3)cc1)O2` (stereo not shown) [Example 15, 3-[4-(pyrrolidin-1-ylmethyl)phenyl]-2,3-dihydro[1,4]dioxin[2,3-b]pyridine] returned an IC50 on human LTA4 hydrolase of 0.77 nM.

In the case of `c1ccc2c(c1)OCC(c1ccc(CN3CCn4cnnc4C3)cc1)O2` (stereo not shown) [Example 16, 7-[4-(2,3-dihydro-1,4-benzodioxin-2-yl)benzyl]-5,6,7,8-tetrahydro[1,2,4,]triazolo[4,3-a]pyrazine], half-maximal inhibition at human LTA4 hydrolase (IC50) was put at 1.14 nM.

As for `O=S1(=O)CCN(Cc2ccc(C3COc4cccnc4O3)cc2)CC1` (stereo not shown) [Example 17, 3-{4-[(1,1-dioxidothiomorpholin-4-yl)methyl]phenyl}-2,3-dihydro[1,4]dioxino[2,3-b]pyridine], at human LTA4 hydrolase, the IC50 was determined as 0.73 nM.

At human LTA4 hydrolase, `c1ccc2c(c1)OC[C@@H](c1ccc(CN3CCOCC3)cc1)O2` [Example 199, 4-{4-[(2R)-2,3-dihydro-1,4-benzodioxin-2-yl]benzyl}morpholine] yielded an IC50 of 40.1 nM.

For the compound `CC(C)(C(=O)O)C1CCN(Cc2ccc([C@H]3COc4ccccc4O3)cc2)CC1` [Example 229, 2-(1-{4-[(2S)-2,3-dihydro-1,4-benzodioxin-2-yl]benzyl}piperidin-4-yl)-2-methylpropanoic acid], the IC50 in assay [1] came out at 290 nM.

Turning to `O=C(O)c1ccc(CC2CCN(Cc3ccc([C@H]4COc5cccnc5O4)cc3)CC2)cc1` [Example 234, 4-[(1-{4-[(3S)-2,3-dihydro[1,4]dioxino[2,3-b]pyridin-3-yl]benzyl}piperidin-4-yl)methyl]benzoic acid], in [1], the IC50 was determined as 94.8 nM.

On to `CCCCN(Cc1ccc(C(=O)O)cc1)Cc1ccc([C@H]2COc3ccccc3O2)cc1` [Example 237], for which, in assay [1], the IC50 is 94.5 nM.

For `CN(CCCOc1ccc(Cc2ccccc2)cc1)CCC(=O)O.Cl` [SC-57461A, reference compound], in assay [2], the Bsg gene expression entry is listed as “down regulation of Bsg gene expression”, the CXCL12 gene expression entry is recorded as “down regulation of CXCL12 gene expression”, the Gpb4 gene expression entry was “down regulation of Gpb4 gene expression” and the Plat gene expression result is “up regulation of Plat gene expression”. Moreover, in [3] (setting [7]), the “CA1 neuronal gene changes” value is reported as “many significant gene changes to neurons in the CA1 region of the hippocampus”, the “DG neuronal gene changes” value is reported as “many significant gene changes to neurons in the DG region of the hippocampus”, the “Dcc gene expression in the dentate gyrus” value is given as “not significantly impacted” and the “Spock3 gene expression in the dentate gyrus” value is recorded as “not significantly impacted”. Besides, in assay [3] (long-term treatment), the “Biological Process GO terms, CA1 hippocampal neurons” value is reported as “changes to synapses” and the “Biological Process GO terms, DG hippocampal neurons” value is recorded as “changes to synapses”. Further, in the assay with aged mice, the “synapse density in the CA1 region of the hippocampus” value is recorded as “no trend in increased CA1 synapse density”. Besides, in the assay with mice, the memory domains improved entry is listed as “only improved spatial memory”. Moreover, in the assay with aged C57BL/6 mice [4], the “Biological Process GO terms, astrocytes” value is recorded as “changes to astrocytes”; the “Biological Process GO terms, endothelial” value is “changes to endothelial”; the “Biological Process GO terms, pericytes” value is on record as “changes to pericyte”; the astrocyte gene changes entry is given as “many significant gene changes to astrocytes”. In the assay on aged C57BL/6 mice [4], the “endothelial cell gene changes” value is on record as “many significant gene changes to brain endothelial cells” and the pericyte gene changes entry is recorded as “many significant gene changes to pericytes”. Further, the “Biological Process GO terms, BECs” value in assay [5] (2.5 mg/kg PO bid one month) is “changes to the endothelial milieu”. In addition, the “endothelial cell gene changes, enriched brain endothelial cells” value in assay [5] (2.5 mg/kg bid P.O. 1 month) is on record as “many significant gene changes to brain endothelial cells”. For the same compound, in the assay with aged C57BL/6 mice [6], the “LTP, CA1 region of the hippocampus” value is “did not show the same LTP increase” and the “LTP, DG region of the hippocampus” value was “did not show the same LTP increase”.

In general, IC50 refers to the concentration needed to halve the response being measured.
